Assay results published in PMC5513037, “Examining the influence of specificity ligands and ATP-competitive ligands on the overall effectiveness of bivalent kinase inhibitors” (Proteome Science, 2017).

Experiments:
Assay in all cases: KAM-matrix competition in K562 lysate;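 as to 0.001 uM KAM: median log10 fold change of treatment over DMSO control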;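 as to 0.01 uM KAM: median log10 fold change of treatment over DMSO control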;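 as to 0.1 uM KAM: median log10 fold change of treatment over DMSO control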;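 as to 1 uM KAM: median log10 fold change of treatment over DMSO control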;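 as to 10 uM KAM: median log10 fold change of treatment over DMSO control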
Assay type in all cases: binding
AURKB = molecular target: T1, AURKB (Homo sapiens, UniProt Q96GD4)
T1 construct: endogenous in cells; host or cells: K562
Experimental: (§1) Supplement 12953_2017_125_MOESM1_ESM.zip/MS_Supp Info.xlsx, sheet "KAM" | column: 10 uM KAM; 1 uM KAM; 0.1 uM KAM; 0.01 uM KAM; 0.001 uM KAM; RB50

MAP2K7 = molecular target: T2, MAP2K7 (Homo sapiens, UniProt O14733);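 as to 0.001 uM KAM: median log10 fold change of treatment over DMSO control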;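 as to 0.01 uM KAM: median log10 fold change of treatment over DMSO control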;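 as to 0.1 uM KAM: median log10 fold change of treatment over DMSO control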;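 as to 1 uM KAM: median log10 fold change of treatment over DMSO control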;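 as to 10 uM KAM: median log10 fold change of treatment over DMSO control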
T2 construct: endogenous in cells; host or cells: K562
T2 sequence (O14733 1-419): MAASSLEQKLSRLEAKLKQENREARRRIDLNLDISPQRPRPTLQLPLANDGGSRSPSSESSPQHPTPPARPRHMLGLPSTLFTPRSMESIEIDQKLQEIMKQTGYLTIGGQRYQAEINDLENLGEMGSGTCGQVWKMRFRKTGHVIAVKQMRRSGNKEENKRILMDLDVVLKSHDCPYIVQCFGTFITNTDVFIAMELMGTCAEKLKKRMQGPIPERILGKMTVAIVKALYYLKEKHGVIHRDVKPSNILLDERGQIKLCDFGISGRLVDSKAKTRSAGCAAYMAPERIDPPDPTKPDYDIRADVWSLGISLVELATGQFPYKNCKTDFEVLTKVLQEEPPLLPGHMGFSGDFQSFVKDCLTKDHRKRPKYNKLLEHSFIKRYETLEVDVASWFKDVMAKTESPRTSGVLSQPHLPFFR
Experimental: as §1

MAPK6 = molecular target: T3, MAPK6 (Homo sapiens, UniProt Q16659)
T3 construct: endogenous in cells; host or cells: K562
Experimental: as §1

MERTK = molecular target: T4, MERTK (Homo sapiens, UniProt Q12866);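 as to 0.001 uM KAM: median log10 fold change of treatment over DMSO control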;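 as to 0.01 uM KAM: median log10 fold change of treatment over DMSO control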;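 as to 0.1 uM KAM: median log10 fold change of treatment over DMSO control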;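 as to 1 uM KAM: median log10 fold change of treatment over DMSO control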;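 as to 10 uM KAM: median log10 fold change of treatment over DMSO control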
T4 construct: endogenous in cells; host or cells: K562
T4 sequence (Q12866 21-999): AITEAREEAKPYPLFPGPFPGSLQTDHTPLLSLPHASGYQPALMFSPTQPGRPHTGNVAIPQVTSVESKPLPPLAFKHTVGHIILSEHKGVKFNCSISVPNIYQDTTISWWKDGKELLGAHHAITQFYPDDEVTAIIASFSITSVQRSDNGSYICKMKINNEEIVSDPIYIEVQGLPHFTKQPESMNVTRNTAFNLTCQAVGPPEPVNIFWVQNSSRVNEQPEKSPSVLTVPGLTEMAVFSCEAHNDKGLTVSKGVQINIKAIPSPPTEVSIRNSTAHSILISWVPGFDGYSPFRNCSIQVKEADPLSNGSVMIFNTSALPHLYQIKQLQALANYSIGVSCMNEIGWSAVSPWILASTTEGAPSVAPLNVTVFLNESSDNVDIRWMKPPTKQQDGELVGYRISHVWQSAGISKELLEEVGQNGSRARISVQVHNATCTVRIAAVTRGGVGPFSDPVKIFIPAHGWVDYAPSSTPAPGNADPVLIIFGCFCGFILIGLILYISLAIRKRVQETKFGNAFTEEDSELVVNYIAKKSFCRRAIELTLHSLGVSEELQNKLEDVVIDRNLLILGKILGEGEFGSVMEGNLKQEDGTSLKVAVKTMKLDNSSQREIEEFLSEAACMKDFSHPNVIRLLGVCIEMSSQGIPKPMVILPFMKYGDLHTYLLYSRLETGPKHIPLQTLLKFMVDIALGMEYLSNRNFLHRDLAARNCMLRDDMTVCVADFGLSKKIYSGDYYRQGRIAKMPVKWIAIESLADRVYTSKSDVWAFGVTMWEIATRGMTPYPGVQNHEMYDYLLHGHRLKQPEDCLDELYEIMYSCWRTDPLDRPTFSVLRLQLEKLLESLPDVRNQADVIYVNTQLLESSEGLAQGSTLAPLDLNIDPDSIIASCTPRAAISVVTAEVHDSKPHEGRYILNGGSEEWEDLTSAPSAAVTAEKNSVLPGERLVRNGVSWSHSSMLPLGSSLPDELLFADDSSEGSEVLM
Experimental: as §1

RIOK1 = molecular target: T5, RIOK1 (Homo sapiens, UniProt Q9BRS2);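 as to 0.001 uM KAM: median log10 fold change of treatment over DMSO control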;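 as to 0.01 uM KAM: median log10 fold change of treatment over DMSO control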;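 as to 0.1 uM KAM: median log10 fold change of treatment over DMSO control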;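 as to 1 uM KAM: median log10 fold change of treatment over DMSO control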;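 as to 10 uM KAM: median log10 fold change of treatment over DMSO control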
T5 construct: endogenous in cells; host or cells: K562
T5 sequence (Q9BRS2 1-568): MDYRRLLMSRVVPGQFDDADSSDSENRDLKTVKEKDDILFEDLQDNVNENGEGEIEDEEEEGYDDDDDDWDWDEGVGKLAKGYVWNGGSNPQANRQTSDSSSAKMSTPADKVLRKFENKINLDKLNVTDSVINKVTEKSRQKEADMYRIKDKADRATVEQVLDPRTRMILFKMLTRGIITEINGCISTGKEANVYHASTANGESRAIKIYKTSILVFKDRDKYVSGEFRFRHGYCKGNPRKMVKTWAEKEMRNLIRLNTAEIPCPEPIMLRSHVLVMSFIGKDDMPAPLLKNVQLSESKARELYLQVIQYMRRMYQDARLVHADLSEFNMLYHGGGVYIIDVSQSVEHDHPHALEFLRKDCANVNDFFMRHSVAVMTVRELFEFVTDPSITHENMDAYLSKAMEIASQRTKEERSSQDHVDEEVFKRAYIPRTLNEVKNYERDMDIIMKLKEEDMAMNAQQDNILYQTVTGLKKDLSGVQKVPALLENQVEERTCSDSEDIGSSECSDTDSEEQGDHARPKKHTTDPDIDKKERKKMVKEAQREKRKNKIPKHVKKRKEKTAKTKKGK
Experimental: as §1

STK24 = molecular target: T6, STK24 (Homo sapiens, UniProt Q9Y6E0);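 as to 0.001 uM KAM: median log10 fold change of treatment over DMSO control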;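 as to 0.01 uM KAM: median log10 fold change of treatment over DMSO control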;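 as to 0.1 uM KAM: median log10 fold change of treatment over DMSO control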;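 as to 1 uM KAM: median log10 fold change of treatment over DMSO control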;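 as to 10 uM KAM: median log10 fold change of treatment over DMSO control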
T6 construct: endogenous in cells; host or cells: K562
Experimental: as §1

TGFBR2 = molecular target: T7, TGFBR2 (Homo sapiens, UniProt P37173)
T7 construct: endogenous in cells; host or cells: K562
Experimental: as §1

[1] = read-out: RB50 (the source's name)
[2] = KAM 0.001-10 uM, read-out: RB50 (the source's name)

T3 sequence (Q16659 whole entry): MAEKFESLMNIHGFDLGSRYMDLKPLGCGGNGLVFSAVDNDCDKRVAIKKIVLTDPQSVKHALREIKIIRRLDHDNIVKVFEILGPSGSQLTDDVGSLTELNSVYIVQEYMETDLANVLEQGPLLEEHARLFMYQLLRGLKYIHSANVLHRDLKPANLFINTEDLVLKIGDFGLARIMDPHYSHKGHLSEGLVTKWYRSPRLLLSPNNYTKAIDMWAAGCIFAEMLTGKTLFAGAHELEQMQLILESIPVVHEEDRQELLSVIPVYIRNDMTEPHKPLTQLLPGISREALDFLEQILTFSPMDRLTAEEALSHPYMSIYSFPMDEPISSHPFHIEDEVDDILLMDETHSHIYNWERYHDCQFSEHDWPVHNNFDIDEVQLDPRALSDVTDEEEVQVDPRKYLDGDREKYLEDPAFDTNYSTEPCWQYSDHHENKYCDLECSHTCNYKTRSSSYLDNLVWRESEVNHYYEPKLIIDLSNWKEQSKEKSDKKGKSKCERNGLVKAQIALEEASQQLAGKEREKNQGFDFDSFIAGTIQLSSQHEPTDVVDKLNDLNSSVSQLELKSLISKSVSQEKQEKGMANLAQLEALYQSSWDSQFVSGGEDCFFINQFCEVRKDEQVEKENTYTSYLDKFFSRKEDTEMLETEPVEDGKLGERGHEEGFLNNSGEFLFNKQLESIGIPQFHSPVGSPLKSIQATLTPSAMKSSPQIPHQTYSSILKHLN
T7 sequence (P37173 23-567): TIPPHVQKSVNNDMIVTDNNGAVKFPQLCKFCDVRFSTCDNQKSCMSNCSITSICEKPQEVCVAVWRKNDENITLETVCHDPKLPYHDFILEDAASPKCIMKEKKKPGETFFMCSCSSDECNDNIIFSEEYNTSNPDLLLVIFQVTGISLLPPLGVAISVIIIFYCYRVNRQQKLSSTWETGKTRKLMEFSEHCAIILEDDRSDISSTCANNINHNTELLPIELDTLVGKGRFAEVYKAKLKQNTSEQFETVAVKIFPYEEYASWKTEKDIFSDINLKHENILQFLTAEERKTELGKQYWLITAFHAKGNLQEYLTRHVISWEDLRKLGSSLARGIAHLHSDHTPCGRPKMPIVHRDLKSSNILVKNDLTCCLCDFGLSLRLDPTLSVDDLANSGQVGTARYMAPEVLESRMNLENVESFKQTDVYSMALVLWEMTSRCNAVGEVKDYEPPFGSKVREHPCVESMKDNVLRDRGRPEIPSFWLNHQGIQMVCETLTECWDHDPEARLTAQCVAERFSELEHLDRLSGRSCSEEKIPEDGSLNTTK
T6 sequence (Q9Y6E0 whole entry): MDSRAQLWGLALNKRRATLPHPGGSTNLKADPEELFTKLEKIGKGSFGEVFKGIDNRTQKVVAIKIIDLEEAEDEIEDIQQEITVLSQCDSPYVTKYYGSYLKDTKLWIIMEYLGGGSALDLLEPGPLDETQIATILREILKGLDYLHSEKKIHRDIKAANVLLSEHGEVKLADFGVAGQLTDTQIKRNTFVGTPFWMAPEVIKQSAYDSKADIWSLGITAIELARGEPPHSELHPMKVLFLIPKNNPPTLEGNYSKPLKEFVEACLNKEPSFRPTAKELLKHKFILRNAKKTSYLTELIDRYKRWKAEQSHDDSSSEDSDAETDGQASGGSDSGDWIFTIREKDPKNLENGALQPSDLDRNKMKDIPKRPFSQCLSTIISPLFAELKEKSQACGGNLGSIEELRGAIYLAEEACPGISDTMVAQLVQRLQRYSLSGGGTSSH
T1 sequence (Q96GD4 whole entry): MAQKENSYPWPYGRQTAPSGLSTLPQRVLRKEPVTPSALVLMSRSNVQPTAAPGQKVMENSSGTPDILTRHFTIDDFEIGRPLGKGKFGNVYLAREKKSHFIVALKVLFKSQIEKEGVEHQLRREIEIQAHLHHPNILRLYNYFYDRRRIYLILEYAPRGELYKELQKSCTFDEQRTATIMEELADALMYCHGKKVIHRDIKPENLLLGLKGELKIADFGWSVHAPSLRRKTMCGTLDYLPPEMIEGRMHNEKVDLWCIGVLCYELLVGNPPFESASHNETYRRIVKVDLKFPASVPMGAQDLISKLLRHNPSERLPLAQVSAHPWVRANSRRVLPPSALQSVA

## N#CCc1ccc(Nc2nc(NCCCN)cc(Nc3cc(C4CC4)[nH]n3)n2)cc1 [KAM]
AURKB; 0.001 uM KAM
  median Log10 fold change: 0.001732
AURKB; 0.01 uM KAM
  median Log10 fold change: -0.09106
AURKB; 0.1 uM KAM
  median Log10 fold change: -0.3265
AURKB; 1 uM KAM
  median Log10 fold change: -0.4096
AURKB; 10 uM KAM
  median Log10 fold change: -0.3913
AURKB; [1]
  IC50: 0.137 µM
MAP2K7; [2]
  IC50: > 10 µM
MAP2K7; relative to 0 uM KAM = 0
  0.001 uM KAM: 0.00178
  0.01 uM KAM: -0.02319
  0.1 uM KAM: -0.04803
  1 uM KAM: -0.07056
  10 uM KAM: -0.08653
MAPK6; 0.001 uM KAM
  median Log10 fold change: 0.01888
MAPK6; 0.01 uM KAM
  median Log10 fold change: 0.003428
MAPK6; 0.1 uM KAM
  median Log10 fold change: -0.1658
MAPK6; 1 uM KAM
  median Log10 fold change: -0.3554
MAPK6; 10 uM KAM
  median Log10 fold change: -0.4572
MAPK6; [1]
  IC50: 0.763 µM
MERTK; [2]
  IC50: > 10 µM
MERTK; relative to 0 uM KAM = 0
  0.001 uM KAM: -0.05728
  0.01 uM KAM: -0.0237
  0.1 uM KAM: -0.04893
  1 uM KAM: -0.1208
  10 uM KAM: -0.2454
RIOK1; [2]
  IC50: > 10 µM
RIOK1; relative to 0 uM KAM = 0
  0.001 uM KAM: -0.005877
  0.01 uM KAM: -0.06085
  0.1 uM KAM: -0.03934
  1 uM KAM: 0.04921
  10 uM KAM: -0.001737
STK24; [2]
  IC50: > 10 µM
STK24; relative to 0 uM KAM = 0
  0.001 uM KAM: -0.01012
  0.01 uM KAM: -0.03939
  0.1 uM KAM: -0.06162
  1 uM KAM: -0.2602
  10 uM KAM: -0.2058
TGFBR2; 0.001 uM KAM
  median Log10 fold change: 0.03003
TGFBR2; 0.01 uM KAM
  median Log10 fold change: -0.09645
TGFBR2; 0.1 uM KAM
  median Log10 fold change: -0.3569
TGFBR2; 1 uM KAM
  median Log10 fold change: -0.3895
TGFBR2; 10 uM KAM
  median Log10 fold change: -0.4032
TGFBR2; [1]
  IC50: 0.117 µM
